The values below come from US11155561B2, “Substituted glutarimides as Btk inhibitors” (SHANGHAI MEIZER PHARMACEUTICALS CO., LTD., priority 2017, dated 2021).

The structures appear in SMILES notation.

The target of this assay is Btk (Homo sapiens, UniProt Q06187). The assay can be described thus: Btk protein degradation activity by Western blot in RPMI8226 cells. The assay is classed as cell-based. The note with it: compound 10 μM, 24 hours. Details: degradation activity of the compound (10 μM) on Btk protein in RPMI8226 cells; endogenous in cells; host or cells: RPMI8226; key: “−” represents no degradation activity; “+” represents a degradation rate of 10%-30%; “++” represents a degradation rate of 30%-50%; “+++” represents a degradation rate of 50%-90%; “++++” means the degradation rate is greater than 90%. Here is the method: Example 6 Testing the Btk Protein Degradation Activity of Compounds by Western Blot
Chain of Btk (Q06187 whole entry): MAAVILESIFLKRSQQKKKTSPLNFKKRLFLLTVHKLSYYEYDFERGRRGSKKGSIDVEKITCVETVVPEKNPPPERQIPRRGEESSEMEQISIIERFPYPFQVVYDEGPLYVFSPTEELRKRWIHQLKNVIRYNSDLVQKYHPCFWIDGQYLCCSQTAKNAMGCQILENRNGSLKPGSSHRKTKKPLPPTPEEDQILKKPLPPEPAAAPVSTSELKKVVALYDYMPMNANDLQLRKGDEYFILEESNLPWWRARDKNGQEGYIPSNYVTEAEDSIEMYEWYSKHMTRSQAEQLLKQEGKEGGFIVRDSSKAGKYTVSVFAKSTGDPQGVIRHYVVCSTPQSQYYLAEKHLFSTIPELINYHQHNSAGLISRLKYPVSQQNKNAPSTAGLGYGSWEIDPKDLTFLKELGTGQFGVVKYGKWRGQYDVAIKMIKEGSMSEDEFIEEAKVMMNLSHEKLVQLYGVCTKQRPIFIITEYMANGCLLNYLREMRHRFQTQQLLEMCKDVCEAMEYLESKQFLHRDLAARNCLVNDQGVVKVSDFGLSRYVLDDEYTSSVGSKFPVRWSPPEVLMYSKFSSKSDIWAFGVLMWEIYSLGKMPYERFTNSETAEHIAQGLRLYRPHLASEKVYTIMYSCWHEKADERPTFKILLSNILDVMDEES
Cell lines: RPMI8226 Cell line was cultured in RPMI1640 medium containing 10% calf serum in a 37° C., 5% CO2, and saturated humidity incubator.
DMSO control group and compound intervention group (10 μM) were set. Cells was collected after the treatment for 24 hours, then 100 μL of pre-chilled cell lysate was added and cells were lysed on ice for 30 minutes. Total cell protein was extracted, and protein concentration was determined and quantified by […] (BCA) method. After routine gelatinization, loading, electrophoresis, then transferring to membrane and blocking, rabbit anti-human Btk (1:500) was added, and incubated at 4° C. overnight. The mixture was rinsed and then horseradish peroxidase labeled goat anti-rabbit IgG (1:5000) was added. After the rinsing it was developed by the ECL developing solution, the Bio-Rad gel imaging system was used for scanning and imaging, and the computer software was used for analysis. […] (GAPDH) was used as an internal control.
Image J software was used to analyze the gray scale of each band to calculate the Btk protein degradation rate of the compound.
A general note: In western blotting, separated proteins are transferred to a membrane and probed.
Turning to `Nc1ncnc2c1c(-c1ccc(Oc3ccccc3)cc1)nn2C1CCCN(C(=O)/C=C/COCCOCCOCCOCCNc2cccc3c2C(=O)N(C2CCC(=O)NC2=O)C3=O)C1` (centres unmarked) [Compound 27], the Degradation activity result was “++++ (“++++” means the degradation rate is greater than 90%)”.

As for `Nc1ncnc2c1c(-c1ccc(Oc3ccccc3)cc1)nn2C1CCCN(C(=O)c2cn(CCOCCOCCOCCOCCOc3cccc4c3C(=O)N(C3CCC(=O)NC3=O)C4=O)nn2)C1` (centres unmarked) [Compound 40], the Degradation activity result is “+++ (“+++” represents a degradation rate of 50%-90%)”. For `Nc1ncnc2c1c(-c1ccc(Oc3ccccc3)cc1)nn2C1CCN(CCOCCOCCOCCOc2cccc3c2C(=O)N(C2CCC(=O)NC2=O)C3=O)CC1` (centres unmarked) [control compound, reference compound] the value was “−”; for `Nc1ncnc2c1c(-c1ccc(Oc3ccccc3)cc1)nn2C1CCCN(C(=O)/C=C/CCOCCOCCNc2cccc3c2C(=O)N(C2CCC(=O)NC2=O)C3=O)C1` (centres unmarked) [Compound 23], “++++ (“++++” means the degradation rate is greater than 90%)”.

Take `Nc1ncnc2c1c(-c1ccc(Oc3ccccc3)cc1)nn2C1CCCN(C(=O)/C=C/CCOCCOCCOCCOCCNc2cccc3c2C(=O)N(C2CCC(=O)NC2=O)C3=O)C1` (centres unmarked) [Compound 28]: the Degradation activity entry is “+++ (“+++” represents a degradation rate of 50%-90%)”.

Turning to `Nc1ncnc2c1c(-c1ccc(Oc3ccccc3)cc1)nn2C1CCCN(C(=O)c2cn(CCOCCOCCOc3cccc4c3C(=O)N(C3CCC(=O)NC3=O)C4=O)nn2)C1` (centres unmarked) [Compound 37], the Degradation activity entry was “++++ (“++++” means the degradation rate is greater than 90%)”. With `Nc1ncnc2c1c(-c1ccc(Oc3ccccc3)cc1)nn2C1CCCN(C(=O)/C=C/CCOCCOCCOCCOc2cccc3c2C(=O)N(C2CCC(=O)NC2=O)C3=O)C1` (centres unmarked) [Compound 18] the entry was “+++ (“+++” represents a degradation rate of 50%-90%)”; with `Nc1ncnc2c1c(-c1ccc(Oc3ccccc3)cc1)nn2C1CCCN(C(=O)/C=C/CCCOCCOCCOCCNc2cccc3c2C(=O)N(C2CCC(=O)NC2=O)C3=O)C1` (centres unmarked) [Compound 25], “++++ (“++++” means the degradation rate is greater than 90%)”. With `C=C(CCOCCOCCOc1cccc2c1C(=O)N(C1CCC(=O)NC1=O)C2=O)C(=O)N1CCCC(n2nc(-c3ccc(Oc4ccccc4)cc3)c3c(N)ncnc32)C1` (centres unmarked) [Compound 30] the entry was “++++ (“++++” means the degradation rate is greater than 90%)”. For `C=C(CCOCCOCCOCCOc1cccc2c1C(=O)N(C1CCC(=O)NC1=O)C2=O)C(=O)N1CCCC(n2nc(-c3ccc(Oc4ccccc4)cc3)c3c(N)ncnc32)C1` (centres unmarked) [Compound 31] the value was “++++ (“++++” means the degradation rate is greater than 90%)”. Consider `C=C(CCCOCCOCCOc1cccc2c1C(=O)N(C1CCC(=O)NC1=O)C2=O)C(=O)N1CCCC(n2nc(-c3ccc(Oc4ccccc4)cc3)c3c(N)ncnc32)C1` (centres unmarked) [Compound 29], for which the Degradation activity result is on record as “++++ (“++++” means the degradation rate is greater than 90%)”. For `Nc1ncnc2c1c(-c1ccc(Oc3ccccc3)cc1)nn2C1CCCN(C(=O)/C=C/CCCCOCCOCCOCCNc2cccc3c2C(=O)N(C2CCC(=O)NC2=O)C3=O)C1` (centres unmarked) [Compound 26] the value was “++++ (“++++” means the degradation rate is greater than 90%)”.

With `Nc1ncnc2c1c(-c1ccc(Oc3ccccc3)cc1)nn2C1CCCN(C(=O)/C=C/CCOCCOCCOCCNc2cccc3c2C(=O)N(C2CCC(=O)NC2=O)C3=O)C1` (centres unmarked) [Compound 24], the Degradation activity entry is recorded as “++++ (“++++” means the degradation rate is greater than 90%)”. With `Nc1ncnc2c1c(-c1ccc(Oc3ccccc3)cc1)nn2C1CCCN(C(=O)/C=C/CCOCCOCCOc2cccc3c2C(=O)N(C2CCC(=O)NC2=O)C3=O)C1` (centres unmarked) [Compound 17] the entry was “+++ (“+++” represents a degradation rate of 50%-90%)”. On to `Nc1ncnc2c1c(-c1ccc(Oc3ccccc3)cc1)nn2C1CCCN(C(=O)/C=C/CCCCOCCOCCOCCOc2cccc3c2C(=O)N(C2CCC(=O)NC2=O)C3=O)C1` (centres unmarked) [Compound 20], for which the Degradation activity entry is “+++ (“+++” represents a degradation rate of 50%-90%)”.

As to `Nc1ncnc2c1c(-c1ccc(Oc3ccccc3)cc1)nn2C1CCCN(C(=O)c2cn(CCOCCOCCOCCOCCNc3cccc4c3C(=O)N(C3CCC(=O)NC3=O)C4=O)nn2)C1` (centres unmarked) [Compound 44], the Degradation activity entry was “+++ (“+++” represents a degradation rate of 50%-90%)”. For `C=C(CCOCCOCCNc1cccc2c1C(=O)N(C1CCC(=O)NC1=O)C2=O)C(=O)N1CCCC(n2nc(-c3ccc(Oc4ccccc4)cc3)c3c(N)ncnc32)C1` (centres unmarked) [Compound 34] the value was “++++ (“++++” means the degradation rate is greater than 90%)”.

Regarding `Nc1ncnc2c1c(-c1ccc(Oc3ccccc3)cc1)nn2C1CCCN(C(=O)/C=C/CCOCCOCCOCCOCCOc2cccc3c2C(=O)N(C2CCC(=O)NC2=O)C3=O)C1` (centres unmarked) [Compound 22], the Degradation activity entry is “+++ (“+++” represents a degradation rate of 50%-90%)”. For `C=C(CCOCCOCCOCCOCCNc1cccc2c1C(=O)N(C1CCC(=O)NC1=O)C2=O)C(=O)N1CCCC(n2nc(-c3ccc(Oc4ccccc4)cc3)c3c(N)ncnc32)C1` (centres unmarked) [Compound 36] the value was “+++ (“+++” represents a degradation rate of 50%-90%)”; for `C=C(CCOCCOCCOCCOCCOc1cccc2c1C(=O)N(C1CCC(=O)NC1=O)C2=O)C(=O)N1CCCC(n2nc(-c3ccc(Oc4ccccc4)cc3)c3c(N)ncnc32)C1` (centres unmarked) [Compound 32], “+++ (“+++” represents a degradation rate of 50%-90%)”; for `C=C(CCOCCOCCOCCNc1cccc2c1C(=O)N(C1CCC(=O)NC1=O)C2=O)C(=O)N1CCCC(n2nc(-c3ccc(Oc4ccccc4)cc3)c3c(N)ncnc32)C1` (centres unmarked) [Compound 35], “++++ (“++++” means the degradation rate is greater than 90%)”. For `Nc1ncnc2c1c(-c1ccc(Oc3ccccc3)cc1)nn2C1CCCN(C(=O)/C=C/CCCOCCOCCOCCOc2cccc3c2C(=O)N(C2CCC(=O)NC2=O)C3=O)C1` (centres unmarked) [Compound 19] the value was “+++ (“+++” represents a degradation rate of 50%-90%)”; for `Nc1ncnc2c1c(-c1ccc(Oc3ccccc3)cc1)nn2C1CCCN(C(=O)c2cn(CCOCCOCCOCCNc3cccc4c3C(=O)N(C3CCC(=O)NC3=O)C4=O)nn2)C1` (centres unmarked) [Compound 43], “++++ (“++++” means the degradation rate is greater than 90%)”. For `Nc1ncnc2c1c(-c1ccc(Oc3ccccc3)cc1)nn2C1CCCN(C(=O)/C=C/COCCOCCOCCOCCOc2cccc3c2C(=O)N(C2CCC(=O)NC2=O)C3=O)C1` (centres unmarked) [Compound 21], the Degradation activity entry was “+++ (“+++” represents a degradation rate of 50%-90%)”. With `Nc1ncnc2c1c(-c1ccc(Oc3ccccc3)cc1)nn2C1CCCN(C(=O)c2cn(CCOCCOCCOCCOc3cccc4c3C(=O)N(C3CCC(=O)NC3=O)C4=O)nn2)C1` (centres unmarked) [Compound 39] the entry was “++++ (“++++” means the degradation rate is greater than 90%)”; with `C=C(CCCOCCOCCNc1cccc2c1C(=O)N(C1CCC(=O)NC1=O)C2=O)C(=O)N1CCCC(n2nc(-c3ccc(Oc4ccccc4)cc3)c3c(N)ncnc32)C1` (centres unmarked) [Compound 33], “++++ (“++++” means the degradation rate is greater than 90%)”.
